Assay results from US6933315B2, “Derivatives of isoindigo, indigo and indirubin and methods of treating cancer” (priority 2001, dated 2005).

How the values were obtained:
DLD-1 = assay: Growth inhibition by MTT, DLD-1 colon cancer cells; type: cell-based, Human; conditions: Homo sapiens, DLD-1, 72 h exposure
Method: (§1) Growth inhibitory effects of NATURA and other agents on human cancer cells were determined by standard MTT (3-(4,5-dimethylthiazol-2-yl)-2,5-diphenyltetrazolium bromide Test) as described previously. Briefly, cancer cells grown exponentially were aliquoted into 96-well plates at a density of 5000 cells/200 μl per well in RPMI 1640 medium containing 10% FBS overnight. The cells in the plates were then exposed to series of dilution of indicated agent. After 72 h of incubation, 100 μl of the medium was removed from each of the wells and 50 μl of a 1 mg/ml solution of 3-(4,5-dimethylthiazol-2-yl)-2,5-diphenyltetrazolium bromide (MTT) was added to each well and the cells were incubated for additional 4 h. 200 μl of solution of 0.04 N HCl-isopropanol was added to each well to dissolve the black fromazan participates, and absorbance at 540 nm was measured on a 96-Well.
as §1, with “FIGS. 3-5 show the anticancer affects” for “Growth inhibitory effects”, “NATURA in MCF-7 breast cancer cells, DLD-1 colon cancer cells,” for “NATURA”, “LNCaP hormone-dependent prostate” for “other agents on human”, “cells. The” for “cells were determined by standard MTT (3-(4,5-dimethylthiazol-2-yl)-2,5-diphenyltetrazolium bromide Test) as described previously. Briefly,”, “fetal bovine serum (FBS)” for “FBS”, “96-Well Microplate Reader. Each experiment was repeated at least three times.” for “96-Well.”

in vivo = conditions: for DFP (Frequency of Death): mice, oral, two weeks
Method: The animals were given Meisoindigo suspension orally at dosage of 0, 1.85, 2.60, 3.60, 5.10, 7.14, and 10.00 g/kg respectively. The animals were tested for two weeks, and the LD50 was measured using modified Bliss method as follows.
LD50 was calculated using following equation: LD50=log^−1 [Xm−i(ΣDFP−0.5)]
Here, Xm is the maximal frequency of death, Xm=I in this case; i is the distance of group. It is determined by following equation, in this case r=1.4 i=log 1/r=0.146

neuroblastoma N2A cells = assay: DNA fragmentation (ladder) in N2A neuroblastoma cells; type: cell-based, Mouse; conditions: 5 μM, 2 days
Method: Once cancer cells have been arrested at G1 phase by either derivatives of the invention, such as, Meisiondigo or NATURA, they will either differentiate or enter apoptosis. […] FIG. 8 confirms that Meisoindigo and NATURA cause apoptosis. The formation of DNA fragmentation (ladder) were measured, an indicator of cell apoptosis, in both LNCaP prostate and N2A neuroblastoma cells. To do this LNCaP and neuroblastoma N2A cells at exponential growth phase were exposed to indicated concentrations of Meisoindigo or NATURA or Taxol (20 nM, as a positive control) for 2 days. The cells were harvested, washed and DNA extracted. Approximately 2 μg per lane of DNA were subjected to 2% agarose gel electrophoresis.
Induction of Apoptosis: As we mentioned previously that cancer cells probably have two options after arrest at G1 phase, i.e. differentiation or apoptosis. […] To confirm our hypothesis and earlier observations, we measured poly(ADP-ribose) polymerase (PARP) degradation and the formation of DNA fragmentation (ladder), indicators of cell apoptosis, in both LNCaP prostate and N2A neuroblastoma cells. LNCaP and neuroblastoma N2A cells at exponential growth phase were exposed to indicated concentrations of Meisoindigo or NATURA or Taxol (20 nM, as a positive control) for 2 days. The cells were harvested, washed and DNA extracted. […]

cyclin D1 = assay: Cyclin D1 protein level by Western blot in HUVEC cells; type: cell-based, human; conditions: 24 hrs; for cyclin D1 protein: 15 μM; for expression of cyclin D1: 5.0 and 15 μM
Method: Meisoindigo and NATURA also significant inhibit expression of cyclin D1 in HUVEC cells. Exponentially growing HUVEC cells were exposed to 5.0 and 15 μM of Meisoindigo and NATURA, 24 hrs after the exposures, the cells were harvested, washed, and total proteins extracted for Western blot analysis using a monoclonal antibody specific against cyclin D1 (Dako). […] As a result, phosphorylation of a tumor suppressor protein Rb, a native substrate of cyclin D1 mediated cdks, was diminished (data not shown).
HUVEC cells grown exponentially were treated for 24 hrs with […] of Meisoindigo and NATURA. The cells were harvested, washed, and total proteins extracted for Western blot analysis as previously described using antibodies specifically against cyclin D1 (panel A), and b-actin (equal loading control, panel B), and detected by ECL detection kit (Amersham). The levels of cyclin D1 from Panel A were quantitated by an imagine densitometor and normalized by b-action (Panel C).

[1] = system: poly(ADP-ribose) polymerase (PARP); assay: PARP degradation by Western blot in N2A cells; type: cell-based, Mouse; conditions: 24 hours
Method: Induction of Apoptosis: As we mentioned previously that cancer cells probably have two options after arrest at G1 phase, i.e. differentiation or apoptosis. […] The cells were harvested, washed and DNA extracted. Approximately 2 μg per lane of DNA were subjected to 2% agarose gel electrophoresis. […] The cells were harvested, washed, and total proteins extracted for determination of PARP degradation by Western blotting as described previously. Upper panels (A & B) are imagines from ECL films, and lower panels (A′ & B′) are densities of the corresponding bands measured by an Imagine Densitometer (expressed as the percent of control).

ML-1 cells = assay: Morphological differentiation of ML-1 cells; type: cell-based, human; conditions: 5 days after exposure

| Structure (SMILES) | IC50 (DLD-1) | LD50 at 2 weeks (in vivo; Kuan Ming, mouse, in vivo, po) | DNA ladders (neuroblastoma N2A cells) | cyclin D1 protein (cyclin D1) | expression of cyclin D1 (cyclin D1) | PARP protein degradation [1] | ML-1 cells differentiated morphologically (ML-1 cells) | Unit of DF (in vivo; Dose 1.86 g/kg) | [DF]^2P^2 (in vivo; Dose 1.86 g/kg) | LD50 (in vivo; Kuan Ming, mouse, in vivo, po, 2 weeks) | DFP (Frequency of Death) (in vivo; Dose 1.86 g/kg) | DFP (Frequency of Death) (in vivo; Dose 2.60 g/kg) | DFP (Frequency of Death) (in vivo; Dose 3.60 g/kg) | DFP (Frequency of Death) (in vivo; Dose 5.10 g/kg) | DFP (Frequency of Death) (in vivo; Dose 7.14 g/kg) | DFP (Frequency of Death) (in vivo; Dose 10.00 g/kg) |
| --- | --- | --- | --- | --- | --- | --- | --- | --- | --- | --- | --- | --- | --- | --- | --- | --- |
| CC(=O)OC1COC(N2C(=O)/C(=C3/C(=O)Nc4ccccc43)c3ccccc32)C(OC(C)=O)C1OC(C)=O [NATURA, 1-(β-D-O-Triacetyl-xylopyranosyl)-isoindigo] | 1640 ± 181 nM | 7330 ± 1150 mg/kg | sufficient to significantly induce DNA ladders | almost completely lost | strongly inhibit | strong induction | approximately 48% | – | – | – | – | – | – | – | – | – |
| CN1C(=O)/C(=C2/C(=O)Nc3ccccc32)c2ccccc21 [Meisoindigo] | 2150 ± 170 nM | 3900 ± 800 mg/kg | sufficient to significantly induce DNA ladders | almost completely lost | strongly inhibit | strong induction | approximately 48% | 2.674 | 0 | 3900 ± 800 mg/kg | 0 | 0.20 | 0.60 | 0.70 | 0.80 | 1.00 |
